In US20230067811A1, “MODULATING LYMPHATIC VESSELS IN NEUROLOGICAL DISEASE” (University of Virginia Patent Foundation, priority 2020, published 2023):

System: microglia
Assay: Single-cell RNA-seq of brain cortical myeloid cells after meningeal lymphatic ablation
Assay type: in vivo, mouse
Conditions: 5×FAD mice, Vis. versus Vis./photo. groups
Method: Transcriptome of sorted live CD45^+Ly6G^negCD11b^+ cells pooled from 3 mice per group was analyzed by single-cell RNA-seq (scRNA-seq).
J Neurosci 28, 14156-14164, (2008)). Thus, it was hypothesized that altered microglial function in mice with impaired meningeal lymphatics was contributing to decreased clearance of Aβ by anti-Abeta antibody. Single-cell RNA-seq was performed on live myeloid CD45^+Ly6G^negCD11b^+ cells sorted from the brain cortices of 5×FAD mice with intact or ablated meningeal lymphatics (FIG. 13A). After in-silico removal of undesired cell contaminants, shared nearest neighbor clustering and t-distributed stochastic neighbor embedding, four clusters of microglia were identified (FIG. 13B). […] Cell 169, 1276-1290 e1217, (2017); Krasemann, S. et al. The TREM2-APOE Pathway Drives the Transcriptional Phenotype of Dysfunctional Microglia in Neurodegenerative Diseases. Immunity 47, 566-581 e569, (2017)). Concomitantly, it was observed that there was a significant increase in cortical CD45^high cells (recruited leukocytes and/or activated microglia, FIGS. 13M-13Q) and in the levels of […] (encoded by the H2-D1 gene) in both CD45^intCD11b^+ (microglia) and CD45high CD11b^neg (recruited lymphoid cells) cells in mice with meningeal lymphatic dysfunction (FIGS. 13R-13U). […]

## verteporfin [Visudyne]
  frequency of microglia (% of total cells) from each cluster: similar
